We go through eight compounds from PMC3498832, “Mechanistic and structural basis for inhibition of thymidylate synthase ThyX” (Open Biology, 2012).

Like-named read-outs stand apart in the source and are kept apart here. Marks after values point to notes of the source that are not given here.

The target of test [1] is T1, human thymidylate synthase (Homo sapiens, UniProt P04818).
T1 construct: made in house; host or cells: E. coli BL21
In words: Human thymidylate synthase activity. The note with it: data not shown. The format is biochemical.

In a further test the target is T2, H. pylori ThyX (Helicobacter pylori, UniProt O26061).
T2 construct: made in house; host or cells: E. coli BL21
T2 sequence (O26061 1-208): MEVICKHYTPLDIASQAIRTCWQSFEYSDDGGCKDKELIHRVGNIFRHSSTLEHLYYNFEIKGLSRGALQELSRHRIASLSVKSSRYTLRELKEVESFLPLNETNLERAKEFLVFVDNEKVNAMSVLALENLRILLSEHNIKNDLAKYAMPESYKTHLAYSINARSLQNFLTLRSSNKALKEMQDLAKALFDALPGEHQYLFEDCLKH
The format is biochemical.

The test system of a further test is C. trachomatis ThyX. In words: ThyX activity with isolated C. trachomatis ThyX. In kind it is biochemical, Chlamydia trachomatis.
The target in the next test is T3, M. tuberculosis ThyX (Mycobacterium tuberculosis, UniProt P9WG57).
T3 construct: made in house; host or cells: E. coli BL21
The format is biochemical.

The subject of test [2] is E. coli MG1655 (wild-type, thyA+ tdk+). Kind of test: Growth inhibition (CFU) of isogenic wild-type E. coli. The note with it: Escherichia coli, MG1655, 24 h, read-out: growth inhibition.
Experimental: (§1) Escherichia coli MG1655 (wild-type, thyA^+ tdk^+) and FE010 [ΔthyA::PBCV-1 thyX tdk^+] [26] were grown at 37°C either in thymidine-containing LB medium or thymidine-free M9 minimal medium supplemented with 0.1 mM CaCl2, 2 mM MgSO4 and 0.2 per cent casamino acids (Difco). IPTG-induced overexpression of target protein PBCV-1 ThyX was used to test titration of inhibitor in the bacterial cell. When necessary, thymidine (40 µg ml^−1) and kanamycin (40 µg ml^−1) were added to the growth medium. The cells were then harvested and washed two times with M9 medium to remove the remaining thymidine. The cells were diluted to an OD600 of approximately 0.1 using M9 medium and 1 ml of cell suspension was transferred to 24-well microplates (Nunc). Compounds were dissolved in DMSO and were added at indicated concentrations. No cells and DMSO-only controls were included for each medium composition. The plates were closed with plastic lids and incubated at 37°C with shaking at 160 r.p.m. After 24 h of incubation, 100 µl of 10-fold serial dilutions were plated onto LB plates or LB plates supplemented with kanamycin (40 µg ml^−1) when appropriate. Colonies were enumerated after overnight incubation at 37°C. Colony-forming units (CFU) per millilitre for each growth condition were determined from three independent experiments.
Test [3] relates to E. coli FE010 (ΔthyA::PBCV-1 thyX tdk+). Kind of test: Growth inhibition (CFU) of genetically modified E. coli dependent on thyX.
Experimental: as §1
In test [4] the test system is E. coli FE010 carrying plasmid overexpressing PBCV-1 thyX. Kind of test: Growth inhibition with IPTG-induced overexpression of PBCV-1 ThyX (selectivity factor, ratio of CFUs).
Experimental: Escherichia coli MG1655 (wild-type, thyA^+ tdk^+) and FE010 [ΔthyA::PBCV-1 thyX tdk^+] [26] were grown at 37°C either in thymidine-containing LB medium or thymidine-free M9 minimal medium supplemented with 0.1 mM CaCl2, 2 mM MgSO4 and 0.2 per cent casamino acids (Difco). IPTG-induced overexpression of target protein PBCV-1 ThyX was used to test titration of inhibitor in the bacterial cell. When necessary, thymidine (40 µg ml^−1) and kanamycin (40 µg ml^−1) were added to the growth medium. The cells were then harvested and washed two times with M9 medium to remove the remaining thymidine. The cells were diluted to an OD600 of approximately 0.1 using M9 medium and 1 ml of cell suspension was transferred to 24-well microplates (Nunc). Compounds were dissolved in DMSO and were added at indicated concentrations. No cells and DMSO-only controls were included for each medium composition. The plates were closed with plastic lids and incubated at 37°C with shaking at 160 r.p.m. […] Colony-forming units (CFU) per millilitre for each growth condition were determined from three independent experiments.
The values reported are means of three individual experiments. Hundred per cent refers to cell viability, measured as CFU, in the absence of inhibitor. […]
In test [5] the target is T4, PBCV-1 ThyX (Paramecium bursaria Chlorella virus 1, UniProt O41156).
T4 construct: made in house; host or cells: E. coli BL21
In words: NADPH oxidation assay of ThyX activity (decrease of A340). In kind it is biochemical, Paramecium bursaria chlorella virus (PBCV-1).

The target of test [6] is T4, PBCV-1 ThyX. In words: 'deprotonation' activity (tritium release assay from [5-3H]dUMP). In kind it is biochemical, Paramecium bursaria chlorella virus (PBCV-1). Conditions: compound 20 µM.
In test [7] the target is T4, PBCV-1 ThyX. In words: C8-C1 induced quenching of FAD fluorescence. The note with it: authors' unpublished data. In kind it is binding.
Experimental: We stress that the total PBCV-1 ThyX concentration used in these assays was 10 μM.
The target of test [8] is T4, PBCV-1 ThyX. Kind of test: ThyX assay under anaerobic conditions (NADPH oxidation at 340 nm, FAD reduction at 450 nm). The format is biochemical, Paramecium bursaria chlorella virus (PBCV-1). The note with it: 100 μM dUMP or inhibitor, 400 μM NADPH, 77 μM ThyX bound FAD. Here is the method:
ThyX assays (100 μl) under anaerobic conditions contained 77 μM of PBCV-1 ThyX bound FAD in 300 mM NaCl, 1 mM MgCl2, 10 per cent glycerol (m/v) and 50 mM HEPES, pH 8.0. Samples were made anaerobic by repeatedly degassing with argon. Traces of oxygen were removed using the glucose oxidase system (60 units of glucose oxidase and catalase in the presence of 10 mM glucose). Where indicated, 100 μM dUMP, 100 μM inhibitor C8-C1 and 400 μM NADPH were added using an air-tight syringe. NADPH oxidation and FAD reduction were followed spectroscopically (optical path length 1 mm) at 340 and 450 nm, respectively.

Test [9] addresses T4, PBCV-1 ThyX. More on the design: method as in PMID 15471872. Conditions: cited from earlier work.
The subject of another test is Thermotoga maritima ThyX. Conditions: T. maritima ThyX; no reference given; cited from earlier work.
[10] abbreviates: 10 µM total PBCV-1 ThyX, 5 µM dUMP, 200 µM NADPH, read-out: IC50 (µM) NADPH oxidation.

T4 sequence (O41156 whole entry): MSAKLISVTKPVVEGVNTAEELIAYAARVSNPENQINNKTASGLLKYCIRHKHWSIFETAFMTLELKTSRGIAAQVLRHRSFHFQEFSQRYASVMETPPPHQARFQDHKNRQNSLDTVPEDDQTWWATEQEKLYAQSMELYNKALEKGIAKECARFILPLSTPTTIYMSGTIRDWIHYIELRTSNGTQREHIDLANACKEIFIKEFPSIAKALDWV
T3 sequence (P9WG57 whole entry): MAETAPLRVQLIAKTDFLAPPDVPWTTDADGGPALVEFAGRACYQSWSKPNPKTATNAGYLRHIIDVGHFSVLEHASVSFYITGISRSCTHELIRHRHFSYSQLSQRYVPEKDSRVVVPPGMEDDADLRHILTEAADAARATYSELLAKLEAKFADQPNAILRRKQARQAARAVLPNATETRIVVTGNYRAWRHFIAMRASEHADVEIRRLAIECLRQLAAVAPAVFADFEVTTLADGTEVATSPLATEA
T1 sequence (P04818 whole entry): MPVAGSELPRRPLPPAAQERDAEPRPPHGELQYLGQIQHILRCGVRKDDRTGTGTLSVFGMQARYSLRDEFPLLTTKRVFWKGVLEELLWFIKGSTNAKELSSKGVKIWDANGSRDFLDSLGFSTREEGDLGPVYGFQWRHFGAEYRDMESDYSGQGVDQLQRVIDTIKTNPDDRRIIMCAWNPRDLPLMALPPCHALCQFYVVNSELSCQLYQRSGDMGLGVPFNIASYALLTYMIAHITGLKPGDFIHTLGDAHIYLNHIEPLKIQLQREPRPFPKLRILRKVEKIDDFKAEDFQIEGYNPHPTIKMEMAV

Usually inhibition stands for how much of the control response was suppressed. As to `O=C1C=C(Br)C(=O)c2c(O)cccc21` [2E04, 2-bromo-8-hydroxy-1,4-naphthoquinone], the “inhibitory effect on human thymidylate synthase” value in test [1] is listed as “No inhibitory effect”. Moreover, the “effect on ThyX activity” value at H. pylori ThyX, in the test on C. trachomatis ThyX and on M. tuberculosis ThyX was “specifically decreased the activity” each time. The inhibition at 1.5 µg/mL is 10 to 15% in test [2] and about 80% in test [3] (Escherichia coli, 24 h, read-out: inhibition of bacterial growth). The “growth inhibition after addition of thymidine to the growth medium” value in test [3] (1.5 μg ml−1, thymidine added) is “reversed”. Also, in test [4] (1.5 μg ml−1, with vs without IPTG induction), the “effect of ThyX overexpression on growth inhibition (selectivity factor)” value is reported as “less-potent growth inhibition”.
Broadly, the IC50 is the concentration needed to halve the response being measured. Consider `O=C(O)c1ccccc1NC1=CC(=O)c2c(O)cccc2C1=O` [B3-C1, 2-(5-hydroxy-1,4-dioxo-1,4-dihydronaphthalen-2-ylamino)benzoic acid], for which, at PBCV-1 ThyX [5] (setting [10]), the IC50 is over 10 µM. The compound further yielded an inhibition at 20 µM at PBCV-1 ThyX [6] of 12 ± 6%.
As a reminder, the Kd is the constant that tells how readily two partners part at equilibrium. High values mean a looser complex, low ones a tighter complex. In the case of `COc1ccc(CC2=C(O)C(=O)c3ccccc3C2=O)cc1` [C8-C1, 2-hydroxy-3-(4-methoxybenzyl)-1,4-naphthoquinone], the IC50 against PBCV-1 ThyX [5] is 4.5 µM. For the same compound, the “inhibition modality with respect to NADPH” value at PBCV-1 ThyX [5] (IC50 plotted against NADPH concentration) is listed as “tight-binding uncompetitive inhibition”. In addition, at PBCV-1 ThyX [5] (IC50 plotted against dUMP concentration), the “inhibition modality with respect to dUMP” value is reported as “tight-binding competitive inhibitor”. At PBCV-1 ThyX [5] (Ki after correcting for total enzyme and dUMP concentration, competitive with respect to dUMP), this compound showed a Ki of 0.46 µM. Besides, the Ki on PBCV-1 ThyX [5] (apparent Ki (Morrison equation), with respect to dUMP, uncorrected) turned out to be 1.5 µM. Also, the “Ki (uncompetitive, NADPH)” value on PBCV-1 ThyX [5] (with respect to NADPH) was 4.45 µM. 20 µM produced 78 ± 4% inhibition on PBCV-1 ThyX [6]. In addition, the Kd on PBCV-1 ThyX [7] is about 0.4 µM. Besides, at PBCV-1 ThyX [8], the “FAD reduction (nmol)” value is recorded as 0^b nmol and the “NADPH oxidation” value came to 0 nmol. Further, the “effect of ThyX overexpression on growth inhibition (selectivity factor)” value in test [4] (50 μg ml−1, with vs without IPTG induction) is recorded as “less-potent growth inhibition”.
As for `O=C(CC1=C(O)C(=O)c2ccccc2C1=O)c1ccccc1` [E11-C1, 2-hydroxy-3-(2-oxo-2-phenylethyl)-1,4-naphthoquinone], on PBCV-1 ThyX [5] (setting [10]), the IC50 is 11 µM. The inhibition at 20 µM on PBCV-1 ThyX [6] turned out to be 36 ± 5%.
Consider `Cc1ccc(C(=O)CC2=C(O)C(=O)c3ccccc3C2=O)cc1` [F3-C1, 2-hydroxy-3-(2-oxo-2-p-tolylethyl)-1,4-naphthoquinone], for which the half-inhibitory concentration (IC50) at PBCV-1 ThyX [5] (setting [10]) was 7 µM. Moreover, the inhibition at 20 µM at PBCV-1 ThyX [6] was 38 ± 7%.
For `COc1ccc(C(=O)CC2=C(O)C(=O)c3ccccc3C2=O)cc1` [G3-C1, 2-hydroxy-3-(2-(4-methoxyphenyl)-2-oxoethyl)-1,4-naphthoquinone] the same measures were 10 µM and 22 ± 7%.
For `O=C(CC1=C(O)C(=O)c2ccccc2C1=O)c1cccs1` [H3-C1, 2-hydroxy-3-(2-oxo-2-(thiophen-2-yl)ethyl)-1,4-naphthoquinone] the same measures were 7 µM and 38 ± 3%.
In the case of `O=c1ccn([C@H]2C[C@H](O)[C@@H](COP(=O)(O)O)O2)c(=O)[nH]1` [dUMP, 2′-deoxyuridine-5′-monophosphate, reference compound], at PBCV-1 ThyX [8], the “FAD reduction (nmol)” value was 8.9^a nmol and the “NADPH oxidation” value is reported as 11.3 nmol. Further, the “activating factor of NAD(P)H oxidase activity” value on PBCV-1 ThyX [9] is over 20. Also, the “activating factor of NAD(P)H oxidase activity” value in the test with Thermotoga maritima ThyX is on record as 5–7.
